Data: ChEMBL document CHEMBL1158502, “Gomphostenins: two new antimalarial compounds from the leaves of Gomphostemma niveum” (Bioorg Med Chem Lett, 2010)
In brackets after ≈: the same amount, converted by molar mass.

Columns and labels:
[1] = system: Plasmodium falciparum; test: Antiplasmodial activity against chloroquine-sensitive Plasmodium falciparum MRC-02 in human B+ erythrocytes assessed as inhibition of schizont maturation at 0.25 ug/mL after 24 hrs by conventional parasite culture method; assay type: functional; conditions: MRC-02, 24 h
[2] = system: Plasmodium falciparum; test: Antiplasmodial activity against chloroquine-sensitive Plasmodium falciparum MRC-02 in human B+ erythrocytes assessed as inhibition of schizont maturation after 24 hrs by conventional parasite culture method; assay type: functional, organism-based; conditions: MRC-02, 24 h
[3] = system: Plasmodium falciparum; test: Antiplasmodial activity against chloroquine-resistant Plasmodium falciparum in human B+ erythrocytes assessed as inhibition of schizont maturation after 24 hrs by conventional parasite culture method; assay type: functional, organism-based

SMILES	inhibition at 0.25 µg/mL [1] [%]	IC50 [2] [µg/mL]	IC50 [3] [µg/mL]
CCN(CC)CCCC(C)Nc1ccnc2cc(Cl)ccc12 (stereo not given) [CHLOROQUINE]	100		
CC1=CC(=O)C[C@H]2[C@](C)(CCC3=CCOC3=O)[C@H](CO)CC[C@]12C [GOMPHOSTENIN]		38.2 (≈ 115 µM)	37.7 (≈ 113 µM)
CC(=O)OC[C@@H]1CC[C@]2(C)C(C)=CC(=O)C[C@H]2[C@]1(C)CCC1=CCOC1=O		3.4 (≈ 9.08 µM)	3.2 (≈ 8.55 µM)
